# Experimental data as given in patent publication US9266871B2, “Trifluoromethyl-substituted fused pyrimidines and their use” (BAYER PHARMA AKTIENGESELLSCHAFT, priority 2013, dated 2016).
# Test system: spontaneously hypertensive rats (SHR Okamoto)
# Assay: Radiotelemetric measurement of blood pressure on conscious spontaneously hypertensive rats
# Type: in vivo, rat
# From the text: B-3. Radiotelemetric Measurement of Blood Pressure on Conscious Spontaneously Hypertensive Rats
# A commercially available telemetry system from DATA SCIENCES INTERNATIONAL DSI, USA, is employed for the blood pressure measurement on conscious rats described below.
# The system consists of 3 main components: • implantable transmitters (Physiotel® telemetry transmitter) • receivers (Physiotel® receiver) which are linked via a multiplexer (DSI Data Exchange Matrix) to a • data acquisition computer.
# The telemetry system makes it possible to continuously record blood pressure, heart rate and body motion of conscious animals in their usual habitat.
# The investigations are carried out on adult female spontaneously hypertensive rats (SHR Okamoto) with a body weight of >200 g. SHR/NCrl from the Okamoto Kyoto School of Medicine, 1963 were a cross of male Wistar Kyoto rats with highly elevated blood pressure and female rats having a slightly elevated blood pressure and at F13 handed over to the U.S. National Institutes of Health.
# Unless indicated otherwise, the substances to be investigated are administered orally by gavage in each case to a group of animals (n=6). The test substances are dissolved in suitable solvent mixtures, or suspended in 0.5% strength Tylose, appropriate for an administration volume of 2 ml/kg of body weight.
# In the standard procedure, the following are measured for 10-second periods in each case: • systolic blood pressure (SBP) • diastolic blood pressure (DBP) • mean arterial pressure (MAP) • heart rate (HR) • activity (ACT).
# The acquisition of measurements is repeated under computer control at 5-minute intervals. The source data obtained as absolute value are corrected in the diagram with the currently measured barometric pressure (Ambient Pressure Reference Monitor; APR-1) and stored as individual data. Further technical details are given in the extensive documentation from the manufacturing company (DSI).
# Unless indicated otherwise, the test substances are administered at 9.00 am on the day of the experiment. Following the administration, the parameters described above are measured over 24 hours.
# After the end of the experiment, the acquired individual data are sorted using the analysis software (DATAQUEST™ A.R.T.™ ANALYSIS). The blank value is assumed to be the time 2 hours before administration, and so the selected data set encompasses the period from 7.00 am on the day of the experiment to 9.00 am the following day.
# The data are smoothed over a presettable time by determination of the average (30-minute average) and transferred as a text file to a storage medium. The measured values presorted and compressed in this way are transferred into Excel templates and tabulated. For each day of the experiment, the data obtained are stored in a dedicated file bearing the number of the experiment. Results and test protocols are filed sorted by numbers.
structure (smiles),measurement,setting,value
"C[C@@]1(C(F)(F)F)C(=O)Nc2nc(-c3nn(Cc4ncccc4F)c4ncc(F)cc34)nc(NCCC(F)(F)F)c21 (single isomer, unassigned) [Example 1-1]",mean blood pressure,"0.03 mg/kg, 0 hours after substance administration",148.8 mmHg
same,mean blood pressure,"0.03 mg/kg, 1 hours after substance administration",133.5 mmHg
same,mean blood pressure,"0.03 mg/kg, 2 hours after substance administration",127.3 mmHg
same,mean blood pressure,"0.03 mg/kg, 3 hours after substance administration",128.8 mmHg
same,mean blood pressure,"0.03 mg/kg, 4 hours after substance administration",132.3 mmHg
same,mean blood pressure,"0.03 mg/kg, 5 hours after substance administration",126.0 mmHg
same,mean blood pressure,"0.03 mg/kg, 6 hours after substance administration",124.5 mmHg
same,mean blood pressure,"0.03 mg/kg, 7 hours after substance administration",138.8 mmHg
same,mean blood pressure,"0.03 mg/kg, 8 hours after substance administration",143.8 mmHg
same,mean blood pressure,"0.03 mg/kg, 9 hours after substance administration",136.5 mmHg
same,mean blood pressure,"0.03 mg/kg, 10 hours after substance administration",143.8 mmHg
same,mean blood pressure,"0.03 mg/kg, 11 hours after substance administration",141.7 mmHg
same,mean blood pressure,"0.03 mg/kg, 12 hours after substance administration",141.7 mmHg
same,mean blood pressure,"0.03 mg/kg, 13 hours after substance administration",150.5 mmHg
same,mean blood pressure,"0.03 mg/kg, 14 hours after substance administration",150.8 mmHg
same,mean blood pressure,"0.03 mg/kg, 15 hours after substance administration",153.8 mmHg
same,mean blood pressure,"0.03 mg/kg, 16 hours after substance administration",145.7 mmHg
same,mean blood pressure,"0.03 mg/kg, 17 hours after substance administration",155.3 mmHg
same,mean blood pressure,"0.03 mg/kg, 18 hours after substance administration",151.2 mmHg
same,mean blood pressure,"0.03 mg/kg, 19 hours after substance administration",146.3 mmHg
same,mean blood pressure,"0.03 mg/kg, 20 hours after substance administration",140.2 mmHg
same,mean blood pressure,"0.03 mg/kg, 21 hours after substance administration",142.2 mmHg
same,mean blood pressure,"0.03 mg/kg, 22 hours after substance administration",142.8 mmHg
same,mean blood pressure,"0.03 mg/kg, 23 hours after substance administration",143.0 mmHg
same,mean blood pressure,"0.03 mg/kg, 24 hours after substance administration",143.2 mmHg
same,mean blood pressure,"0.3 mg/kg p.o., 0 hours after substance administration",138.7 mmHg
same,mean blood pressure,"0.3 mg/kg p.o., 1 hours after substance administration",116.3 mmHg
same,mean blood pressure,"0.3 mg/kg p.o., 2 hours after substance administration",106.8 mmHg
same,mean blood pressure,"0.3 mg/kg p.o., 3 hours after substance administration",107.2 mmHg
same,mean blood pressure,"0.3 mg/kg p.o., 4 hours after substance administration",105.5 mmHg
same,mean blood pressure,"0.3 mg/kg p.o., 5 hours after substance administration",106.2 mmHg
same,mean blood pressure,"0.3 mg/kg p.o., 6 hours after substance administration",106.8 mmHg
same,mean blood pressure,"0.3 mg/kg p.o., 7 hours after substance administration",101.7 mmHg
same,mean blood pressure,"0.3 mg/kg p.o., 8 hours after substance administration",111.3 mmHg
same,mean blood pressure,"0.3 mg/kg p.o., 9 hours after substance administration",109.0 mmHg
same,mean blood pressure,"0.3 mg/kg p.o., 10 hours after substance administration",113.3 mmHg
same,mean blood pressure,"0.3 mg/kg p.o., 11 hours after substance administration",114.8 mmHg
same,mean blood pressure,"0.3 mg/kg p.o., 12 hours after substance administration",112.0 mmHg
same,mean blood pressure,"0.3 mg/kg p.o., 13 hours after substance administration",117.2 mmHg
same,mean blood pressure,"0.3 mg/kg p.o., 14 hours after substance administration",115.7 mmHg
same,mean blood pressure,"0.3 mg/kg p.o., 15 hours after substance administration",117.8 mmHg
same,mean blood pressure,"0.3 mg/kg p.o., 16 hours after substance administration",111.5 mmHg
same,mean blood pressure,"0.3 mg/kg p.o., 17 hours after substance administration",121.7 mmHg
same,mean blood pressure,"0.3 mg/kg p.o., 18 hours after substance administration",132.3 mmHg
same,mean blood pressure,"0.3 mg/kg p.o., 19 hours after substance administration",117.0 mmHg
same,mean blood pressure,"0.3 mg/kg p.o., 20 hours after substance administration",110.7 mmHg
same,mean blood pressure,"0.3 mg/kg p.o., 21 hours after substance administration",124.0 mmHg
same,mean blood pressure,"0.3 mg/kg p.o., 22 hours after substance administration",125.5 mmHg
same,mean blood pressure,"0.3 mg/kg p.o., 23 hours after substance administration",139.0 mmHg
same,mean blood pressure,"0.3 mg/kg p.o., 24 hours after substance administration",150.5 mmHg
